Experimental data published in patent publication US11000033B2, “Ketone or oxime compound, and herbicide” (NISSAN CHEMICAL CORPORATION, priority 2014, dated 2021).

What was measured:
Assay type in all cases: in vivo
Scirpus juncoides = test: Test Example 1: herbicidal activity, application before weed generation in submerged conditions (symbol B); details: application herbicide amount 320 g/ha
Outline: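 Flooded alluvial soil (4 cm water) was mixed-sown with the three weed species, and 2.5-leaf rice seedlings were transplanted. On sowing day, a water-diluted emulsion at a predetermined rate was applied to the water surface. After 3 weeks in a 25–30 °C greenhouse, effect was scored 0–5.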

Monochoria vaginalis = test: Test Example 2: herbicidal activity, application during weed generation in submerged conditions (symbol C); details: Table 23; application herbicide amount 320 g/ha; grade 0-5 by criteria of Test Example 1
Outline: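 Read-out: herbicidal effect on each species rated on a visual scale 3 weeks after treatment. Plants were raised together from seed in flooded alluvial soil (4 cm water) at 25° C. to 30° C. and treated at one to two leaves by water-surface application of diluted emulsion.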

Setaria viridis [1] = test: Test Example 4: herbicidal effect by soil treatment (symbol G); details: for G: Setaria viridis, herbicidal effect grade: 320 g/ha
Outline: (§1)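 Seeds were sown in sterilized diluvial soil, covered with about 1.5 cm of soil, and the soil surface was sprayed with a water-diluted emulsion of the compound at a predetermined rate. Plants grew in a greenhouse at 25° C. to 30° C.; effects were scored visually 3 weeks after application.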

Avena fatua [2] = test: Test Example 4: herbicidal effect by soil treatment (symbol I); details: for I: Avena fatua, herbicidal effect grade: 320 g/ha
Outline: as §1

Apera spica-venti [3] = test: Test Example 4: herbicidal effect by soil treatment (symbol L); details: for L: Apera spica-venti, herbicidal effect grade: 320 g/ha
Outline: as §1

Veronica persica [4] = test: Test Example 4: herbicidal effect by soil treatment (symbol R); details: for R: Veronica persica, herbicidal effect grade: 320 g/ha
Outline: as §1

rice = test: Test Example 4: effect on crop by soil treatment (symbol b); details: for b: directly sowed rice plant, effect grade on crop: 320 g/ha
Outline: (§2)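 Seeds were sown in spots on sterilized diluvial soil in a plastic box and covered with about 1.5 cm of soil. Plants were then grown in a greenhouse at 25° C. to 30° C.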

rapeseed [5] = test: Test Example 4: effect on crop by soil treatment (symbol g); details: for g: rapeseed, effect grade on crop: 320 g/ha
Outline: as §2

Digitaria ciliaris = test: Test Example 5: herbicidal effect by foliage application, plastic box (symbol F); details: 320 g/ha, 3 weeks after application
Outline: (§3)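 Seeds were sown in sterilized diluvial soil, covered with about 1.5 cm of soil and grown 14 days in a greenhouse at 25° C. to 30° C. An emulsifiable formulation diluted in water to a set rate was sprayed over foliage, and injury was scored 3 weeks later.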

Setaria viridis [6] = test: Test Example 5: herbicidal effect by foliage application, plastic box (symbol G); details: 320 g/ha, 3 weeks after application
Outline: as §3

[7] = tested on: Echinochloa crus-galli var. crus-galli; test: Test Example 5: herbicidal effect by foliage application, plastic box (symbol H); details: 320 g/ha, 3 weeks after application
Outline: as §3

Avena fatua [8] = test: Test Example 5: herbicidal effect by foliage application, plastic box (symbol I); details: 320 g/ha, 3 weeks after application
Outline: as §3

Apera spica-venti [9] = test: Test Example 5: herbicidal effect by foliage application, plastic box (symbol L); details: 320 g/ha, 3 weeks after application
Outline: as §3

Abutilon theophrasti = test: Test Example 5: herbicidal effect by foliage application, plastic box (symbol M); details: 320 g/ha, 3 weeks after application
Outline: as §3

Chenopodium album = test: Test Example 5: herbicidal effect by foliage application, plastic box (symbol O); details: 320 g/ha, 3 weeks after application
Outline: as §3

Veronica persica [10] = test: Test Example 5: herbicidal effect by foliage application, plastic box (symbol R); details: 320 g/ha, 3 weeks after application
Outline: as §3

soybean = test: Test Example 5: effect on crop by foliage application, plastic box (symbol d); details: 320 g/ha, 3 weeks after application
Outline: (§4)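 Greenhouse culture at 25° C. to 30° C. followed spot-like sowing into sterilized diluvial soil, with seed covered by roughly 1.5 cm of soil.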

rapeseed [11] = test: Test Example 5: effect on crop by foliage application, plastic box (symbol g); details: 320 g/ha, 3 weeks after application
Outline: as §4

[12] = application herbicide amount 320 g/ha

## COCC(=O)OC1=C(c2c(C)cc(C)cc2C)C(=O)C(CC(C)=NOC)C1 (stereo not drawn) [1-093]
Scirpus juncoides
  Herbicidal effect grade, B: Scirpus juncoides: 5 (Herbicidal ratio of 90% or more (almost completely withered))
Monochoria vaginalis
  Herbicidal effect grade, C: Monochoria vaginalis: 3 (Herbicidal ratio of 40% or higher and lower than 70%)
Setaria viridis [1]
  G: Setaria viridis, herbicidal effect grade: 5 (Herbicidal ratio of 90% or more (almost completely withered))
Avena fatua [2]
  I: Avena fatua, herbicidal effect grade: 3 (Herbicidal ratio of 40% or higher and lower than 70%)
Apera spica-venti [3]
  L: Apera spica-venti, herbicidal effect grade: 5 (Herbicidal ratio of 90% or more (almost completely withered))
Veronica persica [4]
  R: Veronica persica, herbicidal effect grade: 0 (Herbicidal ratio of 5% or lower (almost no effect))
rice
  b: directly sowed rice plant, effect grade on crop: 5 (Herbicidal ratio of 90% or more (almost completely withered))
Rapeseed [5]
  g: rapeseed, effect grade on crop: 4 (Herbicidal ratio of 70% or higher and lower than 90%)
Digitaria ciliaris
  F: Digitaria ciliaris, herbicidal effect (criteria 0-5): 5 (Herbicidal ratio of 90% or more (almost completely withered))
Setaria viridis [6]
  G: Setaria viridis, herbicidal effect (criteria 0-5): 5 (Herbicidal ratio of 90% or more (almost completely withered))
[7]
  H: Echinochloa crus-galli var. crus-galli, herbicidal effect (criteria 0-5): 5 (Herbicidal ratio of 90% or more (almost completely withered))
Avena fatua [8]
  I: Avena fatua, herbicidal effect (criteria 0-5): 5 (Herbicidal ratio of 90% or more (almost completely withered))
Apera spica-venti [9]
  L: Apera spica-venti, herbicidal effect (criteria 0-5): 5 (Herbicidal ratio of 90% or more (almost completely withered))
Abutilon theophrasti
  M: Abutilon theophrasti, herbicidal effect (criteria 0-5): 4 (Herbicidal ratio of 70% or higher and lower than 90%)
Chenopodium album
  O: Chenopodium album, herbicidal effect (criteria 0-5): 0 (Herbicidal ratio of 5% or lower (almost no effect))
Veronica persica [10]
  R: Veronica persica, herbicidal effect (criteria 0-5): 3 (Herbicidal ratio of 40% or higher and lower than 70%)
soybean
  d: soybean, effect on crop (criteria 0-5): 3 (Herbicidal ratio of 40% or higher and lower than 70%)
Rapeseed [11]
  g: rapeseed, effect on crop (criteria 0-5): 4 (Herbicidal ratio of 70% or higher and lower than 90%)

## CON=C(C)CC1CC(OC(=O)COCc2ccccc2)=C(c2c(C)cc(C)cc2C)C1=O (stereo not drawn) [1-094]
Scirpus juncoides
  Herbicidal effect grade, B: Scirpus juncoides: 5 (Herbicidal ratio of 90% or more (almost completely withered))
Monochoria vaginalis
  Herbicidal effect grade, C: Monochoria vaginalis: 4 (Herbicidal ratio of 70% or higher and lower than 90%)
Setaria viridis [1]
  G: Setaria viridis, herbicidal effect grade: 5 (Herbicidal ratio of 90% or more (almost completely withered))
Avena fatua [2]
  I: Avena fatua, herbicidal effect grade: 3 (Herbicidal ratio of 40% or higher and lower than 70%)
Apera spica-venti [3]
  L: Apera spica-venti, herbicidal effect grade: 5 (Herbicidal ratio of 90% or more (almost completely withered))
Veronica persica [4]
  R: Veronica persica, herbicidal effect grade: 0 (Herbicidal ratio of 5% or lower (almost no effect))
rice
  b: directly sowed rice plant, effect grade on crop: 5 (Herbicidal ratio of 90% or more (almost completely withered))
Rapeseed [5]
  g: rapeseed, effect grade on crop: 4 (Herbicidal ratio of 70% or higher and lower than 90%)
Digitaria ciliaris
  F: Digitaria ciliaris, herbicidal effect (criteria 0-5): 5 (Herbicidal ratio of 90% or more (almost completely withered))
Setaria viridis [6]
  G: Setaria viridis, herbicidal effect (criteria 0-5): 5 (Herbicidal ratio of 90% or more (almost completely withered))
[7]
  H: Echinochloa crus-galli var. crus-galli, herbicidal effect (criteria 0-5): 5 (Herbicidal ratio of 90% or more (almost completely withered))
Avena fatua [8]
  I: Avena fatua, herbicidal effect (criteria 0-5): 5 (Herbicidal ratio of 90% or more (almost completely withered))
Apera spica-venti [9]
  L: Apera spica-venti, herbicidal effect (criteria 0-5): 5 (Herbicidal ratio of 90% or more (almost completely withered))
Abutilon theophrasti
  M: Abutilon theophrasti, herbicidal effect (criteria 0-5): 4 (Herbicidal ratio of 70% or higher and lower than 90%)
Chenopodium album
  O: Chenopodium album, herbicidal effect (criteria 0-5): 0 (Herbicidal ratio of 5% or lower (almost no effect))
Veronica persica [10]
  R: Veronica persica, herbicidal effect (criteria 0-5): 3 (Herbicidal ratio of 40% or higher and lower than 70%)
soybean
  d: soybean, effect on crop (criteria 0-5): 2 (Herbicidal ratio of 20% or higher and lower than 40%)
Rapeseed [11]
  g: rapeseed, effect on crop (criteria 0-5): 4 (Herbicidal ratio of 70% or higher and lower than 90%)

## CC#CC(=O)OC1=C(c2c(C)cc(C)cc2C)C(=O)C(CC(C)=NOC)C1 (stereo not drawn) [1-095]
Scirpus juncoides
  Herbicidal effect grade, B: Scirpus juncoides: 5 (Herbicidal ratio of 90% or more (almost completely withered))
Monochoria vaginalis
  Herbicidal effect grade, C: Monochoria vaginalis: 1 (Herbicidal ratio of 5% or higher and lower than 20%)
Setaria viridis [1]
  G: Setaria viridis, herbicidal effect grade: 5 (Herbicidal ratio of 90% or more (almost completely withered))
Avena fatua [2]
  I: Avena fatua, herbicidal effect grade: 3 (Herbicidal ratio of 40% or higher and lower than 70%)
Apera spica-venti [3]
  L: Apera spica-venti, herbicidal effect grade: 5 (Herbicidal ratio of 90% or more (almost completely withered))
Veronica persica [4]
  R: Veronica persica, herbicidal effect grade: 1 (Herbicidal ratio of 5% or higher and lower than 20%)
rice
  b: directly sowed rice plant, effect grade on crop: 5 (Herbicidal ratio of 90% or more (almost completely withered))
Rapeseed [5]
  g: rapeseed, effect grade on crop: 4 (Herbicidal ratio of 70% or higher and lower than 90%)
Digitaria ciliaris
  F: Digitaria ciliaris, herbicidal effect (criteria 0-5): 5 (Herbicidal ratio of 90% or more (almost completely withered))
Setaria viridis [6]
  G: Setaria viridis, herbicidal effect (criteria 0-5): 5 (Herbicidal ratio of 90% or more (almost completely withered))
[7]
  H: Echinochloa crus-galli var. crus-galli, herbicidal effect (criteria 0-5): 5 (Herbicidal ratio of 90% or more (almost completely withered))
Avena fatua [8]
  I: Avena fatua, herbicidal effect (criteria 0-5): 5 (Herbicidal ratio of 90% or more (almost completely withered))
Apera spica-venti [9]
  L: Apera spica-venti, herbicidal effect (criteria 0-5): 5 (Herbicidal ratio of 90% or more (almost completely withered))
Abutilon theophrasti
  M: Abutilon theophrasti, herbicidal effect (criteria 0-5): 4 (Herbicidal ratio of 70% or higher and lower than 90%)
Chenopodium album
  O: Chenopodium album, herbicidal effect (criteria 0-5): 0 (Herbicidal ratio of 5% or lower (almost no effect))
Veronica persica [10]
  R: Veronica persica, herbicidal effect (criteria 0-5): 3 (Herbicidal ratio of 40% or higher and lower than 70%)
soybean
  d: soybean, effect on crop (criteria 0-5): 2 (Herbicidal ratio of 20% or higher and lower than 40%)
Rapeseed [11]
  g: rapeseed, effect on crop (criteria 0-5): 4 (Herbicidal ratio of 70% or higher and lower than 90%)

## CON=C(CC1CC(O)=C(c2c(C)cc(Br)cc2C)C1=O)C(C)C (stereo not drawn) [9-001]
Scirpus juncoides
  Herbicidal effect grade, B: Scirpus juncoides: 0 (Herbicidal ratio of 5% or lower (almost no effect))
Monochoria vaginalis
  Herbicidal effect grade, C: Monochoria vaginalis: 0 (Herbicidal ratio of 5% or lower (almost no effect))
Setaria viridis [1]; [12]
  Herbicidal effect grade, G: Setaria viridis: 4 (Herbicidal ratio of 70% or higher and lower than 90%)
Avena fatua [2]; [12]
  Herbicidal effect grade, I: Avena fatua: 0 (Herbicidal ratio of 5% or lower (almost no effect))
Apera spica-venti [3]; [12]
  Herbicidal effect grade, L: Apera spica-venti: 4 (Herbicidal ratio of 70% or higher and lower than 90%)
Veronica persica [4]; [12]
  Herbicidal effect grade, R: Veronica persica: 0 (Herbicidal ratio of 5% or lower (almost no effect))
rice; [12]
  Effect on crop grade, b: directly sowed rice plant: 4 (Herbicidal ratio of 70% or higher and lower than 90%)
Rapeseed [5]; [12]
  Effect on crop grade, g: rapeseed: 0 (Herbicidal ratio of 5% or lower (almost no effect))
Digitaria ciliaris
  F: Digitaria ciliaris, herbicidal effect grade: 4 (Herbicidal ratio of 70% or higher and lower than 90%)
Setaria viridis [6]
  G: Setaria viridis, herbicidal effect grade: 4 (Herbicidal ratio of 70% or higher and lower than 90%)
[7]
  H: Echinochloa crus-galli var. crus-galli, herbicidal effect grade: 5 (Herbicidal ratio of 90% or more (almost completely withered))
Avena fatua [8]
  I: Avena fatua, herbicidal effect grade: 5 (Herbicidal ratio of 90% or more (almost completely withered))
Apera spica-venti [9]
  L: Apera spica-venti, herbicidal effect grade: 3 (Herbicidal ratio of 40% or higher and lower than 70%)
Abutilon theophrasti
  M: Abutilon theophrasti, herbicidal effect grade: 0 (Herbicidal ratio of 5% or lower (almost no effect))
Chenopodium album
  O: Chenopodium album, herbicidal effect grade: 0 (Herbicidal ratio of 5% or lower (almost no effect))
Veronica persica [10]
  R: Veronica persica, herbicidal effect grade: 0 (Herbicidal ratio of 5% or lower (almost no effect))
soybean
  d: soybean, effect on crop grade: 0 (Herbicidal ratio of 5% or lower (almost no effect))
Rapeseed [11]
  g: rapeseed, effect on crop grade: 2 (Herbicidal ratio of 20% or higher and lower than 40%)
